Results: publication PMC8057513, “Comparison of edible brown algae extracts for the inhibition of intestinal carbohydrate digestive enzymes involved in glucose release from the diet” (Journal of Nutritional Science, 2021)
Converted amounts (≈) assume the structure as drawn.

Legend:
Format in all cases: biochemical
[1] = system: T1, maltase (rat intestinal α-glucosidase); assay: maltose hydrolysis, released glucose by HPAEC-PAD; Lineweaver-Burk plot; settings: phosphate buffer 100 mM pH 6.9, 37 °C; crude intestinal extract
T1 construct: gene Mgam; crude phosphate-buffer supernatant of rat intestinal acetone powder (Sigma-Aldrich, labelled EC 3.2.1.48), not purified; maltose-hydrolysing activity of mixed brush-border alpha-glucosidases

[2] = target: T1, maltase (rat intestinal α-glucosidase); assay: maltose hydrolysis, released glucose by HPAEC-PAD; settings: 10 mM maltose, phosphate buffer 100 mM pH 6.9, 37 °C, 30 min; crude intestinal extract
Text: maltose hydrolysis, released glucose by HPAEC-PAD on maltase (rat intestinal α-glucosidase)

[3] = target: T1, maltase (rat intestinal α-glucosidase); assay: maltose hydrolysis, released glucose by HPAEC-PAD; Dixon plot; settings: maltose 1.25-5 mM, pH 6.9, 37 °C; competitive; crude intestinal extract
Text: maltose hydrolysis, released glucose by HPAEC-PAD; Dixon plot on maltase (rat intestinal α-glucosidase)

Km [1]	IC50 [2]	Ki [3]	SMILES
5.8 mM			OC[C@H]1O[C@H](O[C@H]2[C@H](O)[C@@H](O)C(O)O[C@@H]2CO)[C@H](O)[C@@H](O)[C@@H]1O (stereo partly drawn) [maltose]
	0.15 ± 0.02 µg/mL (≈ 0.232 µM)	0.07 µg/mL (≈ 0.108 µM)	C[C@H]1O[C@H](O[C@H]2[C@H](O)[C@@H](O)[C@@H](O[C@H]3[C@H](O)[C@@H](O)C(O)O[C@@H]3CO)O[C@@H]2CO)[C@H](O)[C@@H](O)[C@@H]1N[C@H]1C=C(CO)[C@@H](O)[C@H](O)[C@H]1O (stereo partly drawn) [Acarbose]
